Results taken from patent publication US20100298141A1, “SUBSTITUTED PYRIDINE N-OXIDE HERBICIDES” (E. I. DU PONT DE NEMOURS AND COMPANY, priority 2007, published 2010).

Tests used:
corn = experiment: Test A pre-/postemergence greenhouse test; type: in vivo, Zea mays; details: for Plant response rating, Corn: 0 to 100 scale where 0 is no effect and 100 is complete control; for Corn plant response rating: 0 to 100 scale
How it was run: (§1)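 Visual injury ratings, made relative to untreated controls roughly ten days after treatment, cover both preemergence and postemergence application. Compounds in a surfactant-containing non-phytotoxic solvent were sprayed onto the soil surface after sowing and, simultaneously, onto young plants at the one- to two-leaf stage.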

velvetleaf [1] = experiment: Test A pre-/postemergence greenhouse test; type: in vivo, Abutilon theophrasti; details: for Plant response rating, Velvetleaf: 0 to 100 scale where 0 is no effect and 100 is complete control; for Velvetleaf plant response rating: 0 to 100 scale
How it was run: as §1

redroot pigweed = experiment: Test A pre-/postemergence greenhouse test; type: in vivo, Amaranthus retroflexus; details: for Plant response rating, Pigweed: 0 to 100 scale where 0 is no effect and 100 is complete control; for Pigweed plant response rating: 0 to 100 scale
How it was run: as §1

giant foxtail [2] = experiment: Test A pre-/postemergence greenhouse test; type: in vivo, Setaria faberi; details: for Plant response rating, Foxtail, Giant: 0 to 100 scale where 0 is no effect and 100 is complete control; for Foxtail, Giant plant response rating: 0 to 100 scale
How it was run: as §1

common ragweed = experiment: Test C pre-/postemergence test; type: in vivo, Ambrosia elation; details: for Plant response rating, Ragweed: 31 g ai/ha, scale 0 to 100 (0 no effect, 100 complete control)
How it was run: (§2)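 Compounds in a non-phytotoxic solvent with surfactant applied preemergence to seeded pots and, at the same time, postemergence to plants 2–18 cm tall (1- to 4-leaf stage). Paddy tests: pots flooded to 3 cm, compound applied into the water, depth held throughout.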

duck salad = experiment: Test C flooded paddy test; type: in vivo, Heteranthera limosa; details: Flood
How it was run: (§3)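 Pots were flooded to 3 cm above the soil surface at treatment, compound applied directly to the paddy water, and that depth held throughout. Plants were kept in a greenhouse for 13 to 15 days, then visually rated against untreated controls.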

wheat = experiment: Test A pre-/postemergence greenhouse test; type: in vivo, Triticum aestivum; details: for Plant response rating, Wheat: 0 to 100 scale where 0 is no effect and 100 is complete control; for Wheat plant response rating: 0 to 100 scale
How it was run: as §1

rice = experiment: Test C flooded paddy test; type: in vivo, Oryza sativa; details: Flood
How it was run: as §3

Surinam grass = experiment: Test C pre-/postemergence test; type: in vivo, Brachiaria decumbens; details: for Plant response rating, Surinam Grass: 31 g ai/ha, scale 0 to 100 (0 no effect, 100 complete control)
How it was run: as §2

eastern black nightshade = experiment: Test C pre-/postemergence test; type: in vivo, Solanum ptycanthum
How it was run: as §2

bermudagrass = experiment: Test C pre-/postemergence test; type: in vivo, Cynodon dactylon; details: for Plant response rating, Bermudagrass: 31 g ai/ha
How it was run: as §2

Goosegrass = experiment: Test C pre-/postemergence test; type: in vivo, Eleusin indica; details: for Plant response rating, Goosegrass: 31 g ai/ha, scale 0 to 100 (0 no effect, 100 complete control)
How it was run: as §2

johnsongrass = experiment: Test C pre-/postemergence test; type: in vivo, Sorghum halepense; details: for Plant response rating, Johnsongrass: 31 g ai/ha, scale 0 to 100 (0 no effect, 100 complete control)
How it was run: as §2

giant foxtail [3] = experiment: Test C pre-/postemergence test; type: in vivo, Setaria faberii; details: for Plant response rating, Foxtail, Giant: 31 g ai/ha, scale 0 to 100 (0 no effect, 100 complete control)
How it was run: as §2

lambsquarters = experiment: Test C pre-/postemergence test; type: in vivo, Chenopodium album; details: for Plant response rating, Lambsquarters: 31 g ai/ha, scale 0 to 100 (0 no effect, 100 complete control)
How it was run: as §2

velvetleaf [4] = experiment: Test C pre-/postemergence test; type: in vivo, Abutilon theophrasti; details: for Plant response rating, Velvetleaf: 31 g ai/ha, scale 0 to 100 (0 no effect, 100 complete control)
How it was run: as §2

wild oat = experiment: Test C pre-/postemergence test; type: in vivo, Avena fatua; details: for Plant response rating, Oat, Wild: 31 g ai/ha, scale 0 to 100 (0 no effect, 100 complete control)
How it was run: as §2

barnyardgrass = experiment: Test C flooded paddy test; type: in vivo, Echinochloa crus-galli; details: Flood
How it was run: as §3

[5] = Postemergence, 500 g ai/ha, 0 is no effect, 100 is complete control
[6] = Preemergence, 125 g ai/ha, 0 no effect, 100 complete control
[7] = Preemergence, 500 g ai/ha, 0 no effect, 100 complete control
[8] = 62 g ai/ha, Preemergence, scale 0 to 100
[9] = 125 g ai/ha, preemergence, scale 0 (no effect) to 100 (complete control)
[10] = preemergence, 250 g ai/ha, scale 0 (no effect) to 100 (complete control)
[11] = 31 g ai/ha, scale 0 to 100 (0 no effect, 100 complete control)
[12] = 62 g ai/ha, scale 0 to 100 (0 no effect, 100 complete control)
[13] = 125 g ai/ha, scale 0 to 100, 0 no effect, 100 complete control, 13 to 15 days
[14] = 250 g ai/ha, scale 0 to 100, 0 no effect, 100 complete control, 13 to 15 days
[15] = 62 g ai/ha, Preemergence, scale 0 to 100 (0 no effect, 100 complete control)
[16] = Preemergence, scale 0 to 100 (0 no effect, 100 complete control)

Cn1nc(C(F)(F)F)c(C[S+]([O-])c2ccc(Cl)c[n+]2[O-])c1OCC(F)F (stereo not shown) [Compound 85]
Plant response rating, Corn (corn; Postemergence, 125 g ai/ha): 0 | Corn plant response rating (corn; [5]): 60 | Corn plant response rating (corn; [6]): 0 | Plant response rating, Corn (corn; Preemergence, 500 g ai/ha): 80 | Plant response rating, Velvetleaf (velvetleaf [1]; Postemergence, 125 g ai/ha): 50 | Velvetleaf plant response rating (velvetleaf [1]; [5]): 90 | Velvetleaf plant response rating (velvetleaf [1]; [6]): 50 | Velvetleaf plant response rating (velvetleaf [1]; [7]): 100 | Plant response rating, Pigweed (redroot pigweed; Postemergence, 125 g ai/ha): 60 | Pigweed plant response rating (redroot pigweed; [5]): 90 | Pigweed plant response rating (redroot pigweed; [6]): 70 | Plant response rating, Pigweed (redroot pigweed; Preemergence, 500 g ai/ha): 90 | Plant response rating, Foxtail, Giant (giant foxtail [2]; Postemergence, 125 g ai/ha): 90 | Foxtail, Giant plant response rating (giant foxtail [2]; [5]): 90 | Foxtail, Giant plant response rating (giant foxtail [2]; [6]): 100 | Plant response rating, Foxtail, Giant (giant foxtail [2]; Preemergence, 500 g ai/ha): 100 | Ragweed plant response rating (common ragweed; [8]): 100 | Ragweed plant response rating (common ragweed; [9]): 100 | Plant response rating, Ragweed (common ragweed; Preemergence): 100 | Ragweed plant response rating (common ragweed; [10]): 100 | Plant response rating, Ducksalad (duck salad; [11]): 35 | Plant response rating, Ducksalad (duck salad; [12]): 45 | Plant response rating, Ducksalad (duck salad; [13]): 75 | Plant response rating, Ducksalad (duck salad; [14]): 80 | Plant response rating, Wheat (wheat; Postemergence, 125 g ai/ha): 60 | Wheat plant response rating (wheat; [5]): 70 | Wheat plant response rating (wheat; [6]): 70 | Wheat plant response rating (wheat; [7]): 90 | Plant response rating, Rice (rice; [11]): 0 | Plant response rating, Rice (rice; [12]): 0 | Plant response rating, Rice (rice; [13]): 30 | Plant response rating, Rice (rice; [14]): 50 | Surinam Grass plant response rating (Surinam grass; [8]): 95 | Surinam Grass plant response rating (Surinam grass; [9]): 100 | Plant response rating, Surinam Grass (Surinam grass; Preemergence): 85 | Surinam Grass plant response rating (Surinam grass; [10]): 100 | Nightshade plant response rating (eastern black nightshade; [8]): 85 | Nightshade plant response rating (eastern black nightshade; [9]): 100 | Nightshade plant response rating (eastern black nightshade; [10]): 100 | Bermudagrass plant response rating (bermudagrass; [15]): 100 | Bermudagrass plant response rating (bermudagrass; [9]): 100 | Plant response rating, Bermudagrass (bermudagrass; [16]): 90 | Bermudagrass plant response rating (bermudagrass; [10]): 100 | Goosegrass plant response rating (Goosegrass; [8]): 100 | Goosegrass plant response rating (Goosegrass; [9]): 100 | Plant response rating, Goosegrass (Goosegrass; Preemergence): 100 | Goosegrass plant response rating (Goosegrass; [10]): 100 | Johnsongrass plant response rating (johnsongrass; [8]): 85 | Johnsongrass plant response rating (johnsongrass; [9]): 100 | Plant response rating, Johnsongrass (johnsongrass; Preemergence): 85 | Johnsongrass plant response rating (johnsongrass; [10]): 100 | Foxtail, Giant plant response rating (giant foxtail [3]; [8]): 100 | Plant response rating, Foxtail, Giant (giant foxtail [3]; Preemergence): 85 | Foxtail, Giant plant response rating (giant foxtail [3]; [10]): 100 | Lambsquarters plant response rating (lambsquarters; [8]): 100 | Lambsquarters plant response rating (lambsquarters; [9]): 100 | Plant response rating, Lambsquarters (lambsquarters; Preemergence): 100 | Lambsquarters plant response rating (lambsquarters; [10]): 100 | Velvetleaf plant response rating (velvetleaf [4]; [8]): 70 | Velvetleaf plant response rating (velvetleaf [4]; [9]): 95 | Plant response rating, Velvetleaf (velvetleaf [4]; Preemergence): 50 | Velvetleaf plant response rating (velvetleaf [4]; [10]): 100 | Oat, Wild plant response rating (wild oat; [8]): 80 | Oat, Wild plant response rating (wild oat; [9]): 85 | Plant response rating, Oat, Wild (wild oat; Preemergence): 80 | Oat, Wild plant response rating (wild oat; [10]): 100 | Plant response rating, Barnyardgrass (barnyardgrass; [11]): 0 | Plant response rating, Barnyardgrass (barnyardgrass; [12]): 0 | Plant response rating, Barnyardgrass (barnyardgrass; [13]): 25 | Plant response rating, Barnyardgrass (barnyardgrass; [14]): 70

Cc1cc[n+]([O-])c(S(=O)(=O)Cc2c(C(F)(F)F)nn(C)c2OCC(F)F)c1 [Compound 94]
Plant response rating, Corn (corn; Postemergence, 125 g ai/ha): 40 | Corn plant response rating (corn; [5]): 80 | Corn plant response rating (corn; [6]): 20 | Plant response rating, Corn (corn; Preemergence, 500 g ai/ha): 70 | Plant response rating, Velvetleaf (velvetleaf [1]; Postemergence, 125 g ai/ha): 10 | Velvetleaf plant response rating (velvetleaf [1]; [5]): 70 | Velvetleaf plant response rating (velvetleaf [1]; [6]): 10 | Velvetleaf plant response rating (velvetleaf [1]; [7]): 100 | Plant response rating, Pigweed (redroot pigweed; Postemergence, 125 g ai/ha): 60 | Pigweed plant response rating (redroot pigweed; [5]): 80 | Pigweed plant response rating (redroot pigweed; [6]): 100 | Plant response rating, Pigweed (redroot pigweed; Preemergence, 500 g ai/ha): 100 | Plant response rating, Foxtail, Giant (giant foxtail [2]; Postemergence, 125 g ai/ha): 50 | Foxtail, Giant plant response rating (giant foxtail [2]; [5]): 80 | Foxtail, Giant plant response rating (giant foxtail [2]; [6]): 100 | Plant response rating, Foxtail, Giant (giant foxtail [2]; Preemergence, 500 g ai/ha): 100 | Ragweed plant response rating (common ragweed; [8]): 100 | Ragweed plant response rating (common ragweed; [9]): 100 | Plant response rating, Ragweed (common ragweed; Preemergence): 60 | Ragweed plant response rating (common ragweed; [10]): 100 | Plant response rating, Ducksalad (duck salad; [12]): 0 | Plant response rating, Ducksalad (duck salad; [14]): 75 | Plant response rating, Wheat (wheat; Postemergence, 125 g ai/ha): 60 | Wheat plant response rating (wheat; [5]): 80 | Wheat plant response rating (wheat; [6]): 40 | Wheat plant response rating (wheat; [7]): 90 | Plant response rating, Rice (rice; [12]): 0 | Plant response rating, Rice (rice; [14]): 20 | Surinam Grass plant response rating (Surinam grass; [8]): 90 | Surinam Grass plant response rating (Surinam grass; [9]): 90 | Plant response rating, Surinam Grass (Surinam grass; Preemergence): 90 | Surinam Grass plant response rating (Surinam grass; [10]): 100 | Nightshade plant response rating (eastern black nightshade; [8]): 55 | Nightshade plant response rating (eastern black nightshade; [9]): 100 | Plant response rating, Nightshade (eastern black nightshade; Preemergence, 31 g ai/ha, scale 0 to 100 (0 no effect, 100 complete control)): 50 | Nightshade plant response rating (eastern black nightshade; [10]): 100 | Bermudagrass plant response rating (bermudagrass; [15]): 100 | Bermudagrass plant response rating (bermudagrass; [9]): 100 | Plant response rating, Bermudagrass (bermudagrass; [16]): 90 | Bermudagrass plant response rating (bermudagrass; [10]): 100 | Goosegrass plant response rating (Goosegrass; [8]): 100 | Goosegrass plant response rating (Goosegrass; [9]): 100 | Plant response rating, Goosegrass (Goosegrass; Preemergence): 95 | Goosegrass plant response rating (Goosegrass; [10]): 100 | Johnsongrass plant response rating (johnsongrass; [8]): 95 | Johnsongrass plant response rating (johnsongrass; [9]): 100 | Plant response rating, Johnsongrass (johnsongrass; Preemergence): 85 | Johnsongrass plant response rating (johnsongrass; [10]): 100 | Foxtail, Giant plant response rating (giant foxtail [3]; [8]): 95 | Foxtail, Giant plant response rating (giant foxtail [3]; [9]): 100 | Plant response rating, Foxtail, Giant (giant foxtail [3]; Preemergence): 90 | Foxtail, Giant plant response rating (giant foxtail [3]; [10]): 100 | Lambsquarters plant response rating (lambsquarters; [8]): 90 | Lambsquarters plant response rating (lambsquarters; [9]): 100 | Plant response rating, Lambsquarters (lambsquarters; Preemergence): 90 | Lambsquarters plant response rating (lambsquarters; [10]): 100 | Velvetleaf plant response rating (velvetleaf [4]; [8]): 40 | Velvetleaf plant response rating (velvetleaf [4]; [9]): 100 | Plant response rating, Velvetleaf (velvetleaf [4]; Preemergence): 0 | Velvetleaf plant response rating (velvetleaf [4]; [10]): 100 | Oat, Wild plant response rating (wild oat; [8]): 65 | Oat, Wild plant response rating (wild oat; [9]): 65 | Plant response rating, Oat, Wild (wild oat; Preemergence): 35 | Oat, Wild plant response rating (wild oat; [10]): 98 | Plant response rating, Barnyardgrass (barnyardgrass; [12]): 0 | Plant response rating, Barnyardgrass (barnyardgrass; [14]): 0
